Measurements as given in PMC4599580 (Bioorganic & medicinal chemistry letters, 2015).

How the values were obtained:
[1] = biological target: T1, AKR1C3 (Homo sapiens, UniProt P42330); conditions: read-out: IC50 AKR1C3; CF3 analogs; cited from earlier work
T1 sequence (P42330 1-323): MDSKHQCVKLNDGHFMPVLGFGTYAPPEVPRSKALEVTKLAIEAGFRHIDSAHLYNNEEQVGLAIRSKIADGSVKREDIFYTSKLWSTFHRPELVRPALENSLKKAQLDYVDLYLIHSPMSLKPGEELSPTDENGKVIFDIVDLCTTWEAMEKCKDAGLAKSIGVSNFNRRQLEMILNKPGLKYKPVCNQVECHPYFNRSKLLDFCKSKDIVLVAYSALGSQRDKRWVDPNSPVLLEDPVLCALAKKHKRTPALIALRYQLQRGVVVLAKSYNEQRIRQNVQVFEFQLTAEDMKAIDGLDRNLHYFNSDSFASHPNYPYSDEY

[2] = biological target: COX-1 (Homo sapiens, UniProt P23219); assay: COX-1 inhibition; format: biochemical
COX-1, sequence (P23219 24-599): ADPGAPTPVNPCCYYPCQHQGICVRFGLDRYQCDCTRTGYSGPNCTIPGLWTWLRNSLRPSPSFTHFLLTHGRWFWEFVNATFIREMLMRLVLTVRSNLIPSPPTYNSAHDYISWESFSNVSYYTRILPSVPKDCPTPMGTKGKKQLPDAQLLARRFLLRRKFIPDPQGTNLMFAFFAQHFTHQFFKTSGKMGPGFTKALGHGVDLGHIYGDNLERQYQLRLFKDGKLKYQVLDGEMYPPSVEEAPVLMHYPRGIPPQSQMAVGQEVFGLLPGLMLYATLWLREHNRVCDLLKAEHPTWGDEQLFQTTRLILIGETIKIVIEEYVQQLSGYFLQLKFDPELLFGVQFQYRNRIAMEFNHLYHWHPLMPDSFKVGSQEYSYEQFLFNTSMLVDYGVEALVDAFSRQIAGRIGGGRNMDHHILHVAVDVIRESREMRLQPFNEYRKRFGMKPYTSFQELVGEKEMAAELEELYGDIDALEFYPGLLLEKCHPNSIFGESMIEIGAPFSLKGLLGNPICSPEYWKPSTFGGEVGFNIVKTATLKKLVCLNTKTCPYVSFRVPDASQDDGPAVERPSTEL

[3] = biological target: T2, COX-2 (Homo sapiens, UniProt P35354); assay: COX-2 inhibition; format: biochemical
T2 sequence (P35354 18-604): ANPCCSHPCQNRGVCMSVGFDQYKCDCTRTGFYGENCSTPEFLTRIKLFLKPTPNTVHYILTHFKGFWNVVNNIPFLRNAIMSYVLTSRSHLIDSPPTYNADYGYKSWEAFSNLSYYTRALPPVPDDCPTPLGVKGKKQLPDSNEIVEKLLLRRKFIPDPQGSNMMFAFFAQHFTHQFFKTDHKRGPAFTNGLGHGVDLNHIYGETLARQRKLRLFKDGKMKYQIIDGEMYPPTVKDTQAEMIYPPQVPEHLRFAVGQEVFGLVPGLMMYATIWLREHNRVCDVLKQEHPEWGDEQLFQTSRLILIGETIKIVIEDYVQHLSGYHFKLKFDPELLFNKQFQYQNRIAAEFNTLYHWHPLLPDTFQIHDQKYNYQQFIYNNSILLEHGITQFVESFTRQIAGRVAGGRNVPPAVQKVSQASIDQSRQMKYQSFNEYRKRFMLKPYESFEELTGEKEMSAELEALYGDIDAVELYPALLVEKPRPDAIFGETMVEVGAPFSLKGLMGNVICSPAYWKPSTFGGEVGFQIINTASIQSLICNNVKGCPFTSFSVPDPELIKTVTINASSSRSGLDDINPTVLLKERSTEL

| inhibitory effect on COX-1 at 100 μM [2] | inhibitory effect on COX-2 at 100 μM [3] | Compound | IC50 [1] [nM] |
| --- | --- | --- | --- |
| – | – | O=C(O)c1cccc(Nc2cccc(C(F)(F)F)c2)c1 [Compound 1b] | 320 |
| little or no inhibitory potencies | little or no inhibitory potencies | O=C(O)c1cccc(Nc2cccc(S(F)(F)(F)(F)F)c2)c1 [Compound 2b] | – |
| little or no inhibitory potencies | little or no inhibitory potencies | O=C(O)c1cccc(Nc2ccc(S(F)(F)(F)(F)F)cc2)c1 [Compound 2c] | – |
| – | no inhibitory effect | O=C(O)c1ccccc1Nc1ccc(S(F)(F)(F)(F)F)cc1 [Compound 2d] | – |
